Data published in PMC11173194, “Optimizing Antimicrobial Peptide Design: Integration of Cell-Penetrating Peptides, Amyloidogenic Fragments, and Amino Acid Residue Modifications” (International Journal of Molecular Sciences, 2024).

Legend:
human skin fibroblasts = assay: Toxicity of peptides against human fibroblasts (calcein AM / propidium iodide; cell cycle); type: cell-based; settings: 96 h, both with and without pre-incubation; for number of dead cells: calcein AM / propidium iodide
Protocol: The peptides were pre-incubated for 12 h in DMEM medium without serum in a CO2 incubator. After the incubation period, serum was added to the medium to a final concentration of 10%, and the preparation was added dropwise onto the cells. The cytotoxic effects of peptides against eukaryotic cells (human fibroblasts and BT474) were subsequently assessed using the same method as in the previous study [62].

[1] = tested on: P. aeruginosa 2943 strain; assay: Antibacterial activity in liquid medium; type: cell-based, Pseudomonas aeruginosa; settings: for Peptide Efficacy in Liquid Medium after 24 h of Incubation: P. aeruginosa 2943 strain (resistant), Mueller–Hinton Broth, two independent experiments; for antimicrobial effect compared to the negative control (Figure 3): P. aeruginosa 2943, liquid medium, 24 h
Protocol: (§1) We utilized various strains of microorganisms in this study. […] Bacillus cereus strain IP 5832 (susceptible), Pseudomonas aeruginosa strains ATCC 28753 (susceptible) and 2943 (resistant), and Escherichia coli strains K12 and MG1655 (both susceptible) were also utilized in our experiments.
(§2) S. aureus (strains 209P and 129B), MRSA (strains ATCC 43300 and SA 180-F), B. cereus (strain IP 5832), P. aeruginosa (strains ATCC 28753 and 2943), and E. coli (strains K12 and MG1655) were cultured on Mueller–Hinton Broth (MHB).
(§3) Statistical analysis was conducted using the SigmaPlot v15 software package (SPSS Inc., Chicago, IL, USA). Each experiment was repeated at least twice (n ≥ 2). Data are presented as mean ± standard deviation (M ± SD). Statistical significance was assessed using Student’s t-test and analysis of variance (ANOVA) in the tests of the antibacterial activity of the peptides. The confidence interval value of 0.95 was used, corresponding to an alpha value of 0.05. Statistically significant decreases in optical density compared to the negative control were considered for specific peptide concentrations with p-values below 0.05.

P. aeruginosa ATCC 28753 = assay: Antibacterial activity in liquid medium; type: cell-based, Pseudomonas aeruginosa; settings: for Peptide Efficacy in Liquid Medium after 15 h of Incubation: Mueller–Hinton Broth, two independent experiments; for concentrations of peptides suppressing the growth of bacteria compared to the negative control (Figure 3): liquid medium, 15 h
Protocol: as §1, §2, §3

S. aureus 129B strain = assay: Antibacterial activity in liquid medium; type: cell-based, Staphylococcus aureus; settings: for Peptide Efficacy in Liquid Medium after 24 h of Incubation: S. aureus 129B strain (clinical isolate), Mueller–Hinton Broth, two independent experiments
Protocol: as §1, §2, §3

S. aureus 209P strain = assay: Antibacterial activity in liquid medium; type: cell-based, Staphylococcus aureus; settings: for Peptide Efficacy in Liquid Medium after 15 h of Incubation: S. aureus 209P strain, Mueller–Hinton Broth, two independent experiments; for concentration at which inhibition of bacterial growth was observed (Figure 1): S. aureus 209P, liquid medium, 15 h, gentamicin positive control
Protocol: as §1, §2, §3

[2] = tested on: S. aureus (strain 209P), MRSA (strain ATCC 43300), B. cereus (strain IP 5832), P. aeruginosa (strain ATCC 28753), and E. coli (strain K12); assay: Antimicrobial effect compared with gentamicin, panel of Figure 5; type: cell-based; settings: Figure 5 panel; Mueller–Hinton Broth; 15 h; two independent experiments
Protocol: The antibiotic gentamicin sulfate was used as a positive control. The concentration of gentamicin was 100 µM. Cell cultures in a liquid medium (Mueller–Hinton Broth) served as a negative control. Error bars show standard errors. Number of independent experiments is two. #—for significant differences with negative control p < 0.05.
as §2, §3

MRSA SA 180-F strain = assay: Antibacterial activity in liquid medium; type: cell-based, methicillin-resistant Staphylococcus aureus; settings: MRSA SA 180-F strain (clinical isolate), Mueller–Hinton Broth, two independent experiments
Protocol: as §1, §2, §3

MRSA ATCC 43300 strain = assay: Antibacterial activity in liquid medium; type: cell-based, methicillin-resistant Staphylococcus aureus; settings: for Peptide Efficacy in Liquid Medium after 15 h of Incubation: MRSA ATCC 43300 strain, Mueller–Hinton Broth, two independent experiments
Protocol: as §1, §2, §3

B. cereus IP 5832 strain = assay: Antibacterial activity in liquid medium; type: cell-based, Bacillus cereus; settings: Mueller–Hinton Broth, two independent experiments
Protocol: as §1, §2, §3

E. coli K12 strain = assay: Antibacterial activity in liquid medium; type: cell-based, Escherichia coli; settings: for Peptide Efficacy in Liquid Medium after 15 h of Incubation: E. coli K12 strain, Mueller–Hinton Broth, two independent experiments; for concentration with antimicrobial activity / effective concentration (text to Figure 4): E. coli K12, liquid medium, 15 h
Protocol: as §1, §2, §3

E. coli MG1655 strain = assay: Antibacterial activity in liquid medium; type: cell-based, Escherichia coli; settings: for Peptide Efficacy in Liquid Medium after 24 h of Incubation: E. coli MG1655 strain, Mueller–Hinton Broth, two independent experiments; for concentration with antimicrobial activity / effective concentration (text to Figure 4): E. coli MG1655, liquid medium, 24 h
Protocol: as §1, §2, §3

[3] = POPE:POPG bilayer; 0.1 M KCl, pH 7.4; subthreshold peptide concentrations (20 µg/mL)
Excerpt: The effects of peptide R44K^S on the ionic permeability of planar lipid bilayers composed of an equimolar mixture of POPE and POPG mimicking target bacterial cell membranes was examined. The example of the time dependence of the transmembrane current produced by a subsequent one-side addition of R44K^S into the bathing solution (0.1 M KCl, pH 7.4) is shown in Figure 7A.
The method of recording the transmembrane current under voltage-clamp conditions was used to study the effect of a synthetic peptide on a lipid membrane. Planar lipid bilayers were formed by the Montal and Mueller technique on an aperture of 50 µm diameter in a 10 µm thick Teflon film separating two compartments of Teflon chambers. Each compartment contained 0.1 M KCl and 10 mM HEPES at pH 7.4. Hexadecane was used for the aperture pretreatment. […]
Ag/AgCl electrodes with 1.5% agarose/2 M KCl bridges were used to apply the transmembrane voltage (V) and measure the current flowing through the bilayer (I). […] Data were digitized by a Digidata 1550A and analyzed using pClamp 10.7 (Molecular Devices, LLC, Orleans Drive, Sunnyvale, CA, USA) and Origin 7.0 (OriginLab Corporation, Northampton, MA, USA). […]

BT474 cells = settings: 100 µg/mL, both with and without pre-incubation, 96 h
Protocol: To analyze the cytotoxic effect, cells after incubation with peptides were stained with calcein AM (stains living cells) and propidium iodide (stains dead cells).
Analysis of the cytostatic effect was performed on the basis of the distribution of cells by phases of the cell cycle and mitotic activity.
The peptides were pre-incubated for 12 h in DMEM medium without serum in a CO2 incubator. After the incubation period, serum was added to the medium to a final concentration of 10%, and the preparation was added dropwise onto the cells. The cytotoxic effects of peptides against eukaryotic cells (human fibroblasts and BT474) were subsequently assessed using the same method as in the previous study.

| Substance | Peptide Efficacy in Liquid Medium after 24 h of Incubation [1] | Peptide Efficacy in Liquid Medium after 15 h of Incubation (P. aeruginosa ATCC 28753) | Peptide Efficacy in Liquid Medium after 24 h of Incubation (S. aureus 129B strain) | Peptide Efficacy in Liquid Medium after 15 h of Incubation (S. aureus 209P strain) | Peptide Efficacy in Liquid Medium after 24 h of Incubation (MRSA SA 180-F strain) | Peptide Efficacy in Liquid Medium after 15 h of Incubation (MRSA ATCC 43300 strain) | Peptide Efficacy in Liquid Medium after 15 h of Incubation (E. coli K12 strain) | Peptide Efficacy in Liquid Medium after 24 h of Incubation (E. coli MG1655 strain) | cytotoxic effect (human skin fibroblasts; 100 µg/mL) | antimicrobial effect compared to the negative control (Figure 3) [1] | concentrations of peptides suppressing the growth of bacteria compared to the negative control (Figure 3) (P. aeruginosa ATCC 28753) | concentration at which inhibition of bacterial growth was observed (Figure 1) (S. aureus 209P strain) | concentration with antimicrobial activity / effective concentration (text to Figure 4) (E. coli K12 strain) | concentration with antimicrobial activity / effective concentration (text to Figure 4) (E. coli MG1655 strain) | further results |
| --- | --- | --- | --- | --- | --- | --- | --- | --- | --- | --- | --- | --- | --- | --- | --- |
| RKKRRQRRRGG-Sar-GVVVHI-X-GGKF-NH2 [R23F^S*, Peptide with TAT fragment and modified amyloidogenic fragment of S. aureus S1 protein, C-terminal amide] | 38 µM | 6 µM | 379.8 µM | 6 µM | 379.8 µM | 12 µM | 3 µM | 379.8 µM |  |  |  |  |  |  | number of dead cells (human skin fibroblasts; 50 µg/mL): 11 ± 3%; number of dead cells (human skin fibroblasts; 100 µg/mL): 12 ± 3%; concentrations with antimicrobial effect comparable to gentamicin (100 μM) against all bacteria [2]: 24 to 48 µM; Peptide Efficacy in Liquid Medium after 15 h of Incubation (B. cereus IP 5832 strain): 3 µM |
| RKKRRQRRRGGGGVVVHINGGKFGGGGSRQIKIWFQNRRMKWKK [R44K^S, Unmodified peptide: TAT fragment, amyloidogenic fragment and Antp fragment; commercial product] | >194.4 µM, 2943 strain | 3 µM | >194.4 µM, 129B strain | 6 µM | >194.4 µM, SA 180-F strain | 12 µM | 6 µM | 194.4 µM | no cytotoxic effect | did not exhibit antimicrobial effects | 1.5 µM | 6 to 12 µM | 6 µM | 19.4 µM | concentration at which inhibitory effect / complete suppression of growth was observed (text to Figure 2) (MRSA ATCC 43300 strain; MRSA ATCC 43300, liquid medium, 15 h): 12 µM; single pore conductance [3]: 10–30 pS |
| VVVHINGGKFGGGGSRQIKIWFQNRRMKWKK [V31K^S, commercial product] | >276.8 µM, 2943 strain | >12 µM, ATCC 28753 | >276.8 µM, 129B strain | >12 µM, 209P strain | >276.8 µM, SA 180-F strain | >12 µM, ATCC 43300 strain | >12 µM, K12 strain | >276.8 µM, MG1655 strain | no cytotoxic effect | did not exhibit antimicrobial effects | 6 µM | not demonstrated | did not exhibit antimicrobial activity | 276.8 µM | complete inhibition of bacterial growth (Figure 1) (S. aureus 129B strain; S. aureus 129B, liquid medium, 24 h): not demonstrated; cytotoxic effect (BT474 cells): no cytotoxic effect |
